# Experimental data reported in PubChem BioAssay AID1033 (Sanford-Burnham Center for Chemical Genomics, 2008).
# Calls of active or inactive are those of the source. No rule for the calls is given here.
# Molecular target: Chaperone protein DnaK (Escherichia coli (strain K12)) (UniProt P0A6Y8)
# Test: E. coli DnaK SBD ligand binding – biophysical, NMR, chaperone (AID 1033)
# Conditions: Purified DnaK SBD
# Sequence of Chaperone protein DnaK (Escherichia coli (strain K12)) (P0A6Y8 whole entry, looked up): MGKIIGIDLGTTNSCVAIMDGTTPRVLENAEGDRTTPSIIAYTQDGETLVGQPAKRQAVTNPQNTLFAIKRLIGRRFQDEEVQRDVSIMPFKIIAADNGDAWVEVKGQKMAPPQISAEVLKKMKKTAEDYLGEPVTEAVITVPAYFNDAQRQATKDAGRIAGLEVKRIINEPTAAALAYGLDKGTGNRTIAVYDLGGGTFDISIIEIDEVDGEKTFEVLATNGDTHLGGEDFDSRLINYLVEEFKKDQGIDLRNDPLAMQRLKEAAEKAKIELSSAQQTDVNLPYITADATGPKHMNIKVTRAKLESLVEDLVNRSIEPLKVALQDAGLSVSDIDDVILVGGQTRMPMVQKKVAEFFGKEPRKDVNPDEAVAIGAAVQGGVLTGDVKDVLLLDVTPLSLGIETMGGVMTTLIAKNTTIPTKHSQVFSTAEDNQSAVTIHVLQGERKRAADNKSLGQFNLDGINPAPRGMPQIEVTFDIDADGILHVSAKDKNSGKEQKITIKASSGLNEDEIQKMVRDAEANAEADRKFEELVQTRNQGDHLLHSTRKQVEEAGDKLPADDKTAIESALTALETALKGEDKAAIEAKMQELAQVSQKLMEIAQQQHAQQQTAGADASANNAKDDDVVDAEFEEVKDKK
row,Compound,Kd
1,Cn1cccc1C=C1C(=O)NC(=S)NC1=O,> 4 mM (inactive)
2,Cc1cc(C)nc(N2CC(=O)N(C)C2=N)n1,> 4 mM (inactive)
3,CN1CCOc2cc(C(=O)O)ccc21,> 4 mM (inactive)
4,O=c1c(O)c(-c2ccc(O)cc2O)oc2cc(O)cc(O)c12,> 4 mM (inactive)
5,CC1/C(=N/O)C[C@@H]2C[C@H]1C2(C)C (stereo not given in full),> 4 mM (inactive)
6,NC(=O)C1CCN(S(=O)(=O)c2ccccc2)CC1,> 4 mM (inactive)
7,COc1cc2cc[n+]3cc4c(OC)c(OC)ccc4cc3c2cc1OC,> 4 mM (inactive)
8,Cc1oc(-c2ccccc2)cc1CO,> 4 mM (inactive)
9,O=C(Cc1cccs1)N1CCOCC1,> 4 mM (inactive)
10,O=C(C1CCCCC1)N1CCN(c2ccccc2F)CC1,> 4 mM (inactive)
11,O=c1[nH]cc(NCc2ccccc2)c(=O)[nH]1,> 4 mM (inactive)
12,O=C(O)C1CCCCN1Cc1ccccc1 (stereo not given),> 4 mM (inactive)
13,O=CN1CCN(C(=O)c2ccccc2F)CC1,> 4 mM (inactive)
14,Cc1cc(C)n2nc(Cc3ccccc3)nc2n1,> 4 mM (inactive)
15,S=c1nc(C2CC2)[nH]c2ccccc12,> 4 mM (inactive)
16,O=C(Cc1cccs1)Nc1ccon1,> 4 mM (inactive)
17,CNC(Cc1c[nH]c2ccccc12)C(=O)O (stereo not given),> 4 mM (inactive)
18,C=C[C@@H](C1=CC(=O)C(OC)=C(OC)C1=O)c1ccccc1,> 4 mM (inactive)
19,CC(=O)NC(C)(C)C1CC=C(C)/C(=N\O)C1 (stereo not given),> 4 mM (inactive)
20,CC(C)c1c(O)ccc2c1CCC1[C@@](C)(C=O)CCC[C@]21C (stereo not given in full),> 4 mM (inactive)
21,Cc1ccc(C(=O)NCCO)c(Cl)c1,> 4 mM (inactive)
22,O=c1c(O)c(-c2ccccc2)oc2cc(O)ccc12,> 4 mM (inactive)
23,CCNC(=S)N1CCCC(C(N)=O)C1 (stereo not given),> 4 mM (inactive)
24,CNC(=O)C(=O)Nc1c(C)cccc1C,> 4 mM (inactive)
25,O=C(O)CCCC(=O)Nc1nccs1,> 4 mM (inactive)

row,Compound,Kd
1,CNCc1ccco1,> 4 mM (inactive)
2,O=C(O)CC(O)c1nc2ccccc2[nH]1 (stereo not given),> 4 mM (inactive)
3,Cc1n[nH]c(=S)n(/N=C/c2cccs2)c1=O,> 4 mM (inactive)
4,COc1c(CC=C(C)C)c2c(c3oc(=O)c(-c4ccc(O)cc4)c(O)c13)C=CC(C)(C)O2,> 4 mM (inactive)
5,OCc1ccc(N2CCOCC2)nc1,> 4 mM (inactive)
6,Cc1cccc(C)c1NC(=O)CN1CCOCC1,> 4 mM (inactive)
7,Nc1nc(CSc2ncn(-c3ccccc3)n2)cs1,> 4 mM (inactive)
8,CC(=O)Nc1ccc2c(c1)CCC2=O,> 4 mM (inactive)
9,CC(=O)Oc1ccccc1N1C(=O)C=CC1=O,> 4 mM (inactive)
10,CN(C)CC(O)C1CCOC(C)(C)C1 (stereo not given),> 4 mM (inactive)
11,COc1ccc([C@@H]2CC(=O)c3c(O)cc(O)cc3O2)cc1O,> 4 mM (inactive)
12,Cc1sc2nc(C)n(NC(N)=O)c(=O)c2c1C,> 4 mM (inactive)
13,Cc1scc(C(=O)Nn2cnnc2)c1-c1ccccc1,> 4 mM (inactive)
14,O=c1ccc(=O)n(CN2CCc3ccccc3C2)[nH]1,> 4 mM (inactive)
15,COc1ccc(-c2c(C)n([O-])c(C)c(C)[n+]2=O)cc1,> 4 mM (inactive)
16,Cc1ccc(C(=O)N2CC(=O)NC(=O)C2)cc1,> 4 mM (inactive)
17,COc1ccc2c(=O)c(OC)c(-c3ccccc3)oc2c1,> 4 mM (inactive)
18,Nc1nnc(SCc2ccc(F)cc2)s1,> 4 mM (inactive)
19,COc1ccc(-c2cn[nH]c2N)c(OC)c1,> 4 mM (inactive)
20,CN1CCN(c2ccc(CN)cc2)CC1,> 4 mM (inactive)
21,Cc1ccc(C(=O)N2CCC(C(=O)O)CC2)cc1,> 4 mM (inactive)
22,O=C1c2ccc(F)cc2C(=O)N1CO,> 4 mM (inactive)
23,O=C(CN1CCOCC1)Nc1cccc(Br)c1,> 4 mM (inactive)
24,Cc1occc1C(=O)Nc1nnc(C2CCCCC2)s1,> 4 mM (inactive)
25,CC1NC(C(=O)O)Cc2c1[nH]c1ccccc21 (stereo not given),> 4 mM (inactive)
